# From PMC2546511 (Journal of Molecular Biology, 2007)
# Molecular target: FliI ATPase (FliI^WT) (Salmonella enterica, UniProt P26465)
# Conditions: in the presence of phospholipids; triplicate assays
# FliI ATPase (FliI^WT), sequence (P26465 whole entry): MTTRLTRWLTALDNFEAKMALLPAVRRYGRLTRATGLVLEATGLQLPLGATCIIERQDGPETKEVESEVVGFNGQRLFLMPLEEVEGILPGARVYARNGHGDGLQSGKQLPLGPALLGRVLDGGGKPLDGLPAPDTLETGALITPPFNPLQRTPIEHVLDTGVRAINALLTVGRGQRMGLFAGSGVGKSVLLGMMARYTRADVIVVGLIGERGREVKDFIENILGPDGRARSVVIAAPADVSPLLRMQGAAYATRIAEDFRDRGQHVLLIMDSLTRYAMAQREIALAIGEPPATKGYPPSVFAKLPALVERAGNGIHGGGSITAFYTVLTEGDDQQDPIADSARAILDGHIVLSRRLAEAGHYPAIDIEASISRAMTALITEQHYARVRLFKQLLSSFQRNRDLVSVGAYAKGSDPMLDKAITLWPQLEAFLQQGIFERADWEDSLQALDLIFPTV
smiles,measurement,value
Nc1ncnc2c1ncn2[C@@H]1O[C@H](COP(=O)(O)OP(=O)(O)OP(=O)(O)O)[C@@H](O)[C@H]1O [ATP],Km,1 ± 15% mM
